These results are taken from publication PMC7473772 (eLife, 2020).

As a reminder, the Ki is a dissociation constant, usually derived from enzyme kinetics or from competition with a known ligand. Lower therefore signals tighter binding.

One assay has as its system tbaqp2 null (AQP2-KO). Kind of assay: Drug sensitivity assay (resazurin). Type of assay: cell-based. The note with it: Trypanosoma brucei. (In general: The colour change of resazurin is a common sign of viable cells or microbes.)
The next assay has as its system tbaqp2/tbaqp3 null cells. Nature of the assay: microbe, parasite or virus in culture. The format is cell-based, Trypanosoma brucei brucei. The following applies: Trypanosoma brucei.
The test system of assay [1] is TbAQP2 expressed in tbaqp2 null. Nature of the assay: Drug sensitivity assay (resazurin). The following applies: Trypanosoma brucei. Type of assay: cell-based.
The next assay has as its system T. b. brucei 2T1. Nature of the assay: Drug sensitivity assay (resazurin). The note with it: Trypanosoma brucei. Type of assay: cell-based. On the procedure:
The tbaqp2/tbaqp3 null cells ([Baker et al., 2012]) and tbaqp1-2-3 null cells ([Jeacock et al., 2017]) (both obtained from David Horn, University of Dundee, UK) are derived from the 2T1 strain of T. b. brucei ([Alsford and Horn, 2008]). The CRK12 RNAi cell line^28 was obtained from Dr Tansy Hammarton (University of Glasgow, UK) and is also based on the 2T1 cell line; RNAi expression was induced with 1 µg/ml tetracycline in the medium. All experiments were performed with bloodstream form trypanosomes grown in vitro in HMI-11 medium as described ([Wallace et al., 2002]) at 37°C in a 5% CO2 atmosphere. Cultures were routinely maintained in 10 ml of this medium, being seeded at 5 × 10^4 cells/ml and passed to fresh medium at reaching approximately 3 × 10^6 cells/ml after 48 hr. For transport experiments 150 or 200 ml of culture was seeded at the same density in large flasks and incubated until the culture reached late-log phase.
Drug sensitivity assays for T. b. brucei bloodstream forms used the cell viability dye resazurin (Sigma) and were performed exactly as described ([Wallace et al., 2002]; [Bridges et al., 2007]) in 96-well plates with doubling dilutions of test compound, starting at 100 µM, over 2 rows of the plate (23 dilutions plus no-drug control). Incubation time with test compound was 48 hr (37°C/5% CO2), followed by an additional 24 hr in the presence of the dye.

The next assay concerns the target TbAQP2/HAPT1 (Trypanosoma brucei brucei, UniProt Q6ZXT3). Kind of assay: cell-based. Type of assay: cell-based.
The test system of a further assay is tbaqp1-2-3 null cells. Kind of assay: Drug sensitivity assay (resazurin), pentamidine and SHAM. Type of assay: cell-based, Trypanosoma brucei brucei. The following applies: KO AQP1-3.
The subject of assay [2] is tbaqp1-2-3 null cells expressing TbAQP2 position 84, 118 and 218 Trp and Met mutants. Described as above. The format is cell-based, Trypanosoma brucei brucei.
In assay [3] the test system is tbaqp1-2-3 null cells expressing TbAQP2WT. Described as above. Type of assay: cell-based, Trypanosoma brucei brucei. The following applies: +AQP2 W.T in KO AQP1-3.
For assay [4], the system named is T. b. brucei s427WT cells. The format is cell-based, Trypanosoma brucei brucei.
A further assay has as its system s427WT bloodstream forms. The format is cell-based, Trypanosoma brucei brucei. The following applies: for Effect of ionophore on pentamidine uptake: 25 nM [3H]-pentamidine, 1 mM adenosine, 3 min pre-incubation; for Inhibition of pentamidine transport: after preincubation; for 3H-penta: CCCP 20, gramicidin 10, Nigericin 20, NEM 1000.
In assay [5] the test system is T. b. brucei s427 WT (bloodstream forms). Type of assay: cell-based, Trypanosoma brucei brucei. The following applies: CCCP 20, gramicidin 10, Nigericin 20, NEM 1000; Control -95.4.
The mark [6] stands for this setting: read-out: EC50 AQP2-KO AVG, AQP2-KO / tbaqp2 null, 48 h drug + 24 h resazurin.
Where [7] appears, read: 48 h drug + 24 h resazurin, read-out: EC50 control 2T1 AVG.
[8] abbreviates: 3 repeats, read-out: EC50, MEAN.

Several values for one entry are separate records, joined by “and”; a condition that tells them apart may be missing. Equal entries are not always repeated. Where two headings read alike, the source gives them in different places. Marks after values point to notes of the source that are not given here.

Sequence of TbAQP2/HAPT1 (Q6ZXT3 whole entry): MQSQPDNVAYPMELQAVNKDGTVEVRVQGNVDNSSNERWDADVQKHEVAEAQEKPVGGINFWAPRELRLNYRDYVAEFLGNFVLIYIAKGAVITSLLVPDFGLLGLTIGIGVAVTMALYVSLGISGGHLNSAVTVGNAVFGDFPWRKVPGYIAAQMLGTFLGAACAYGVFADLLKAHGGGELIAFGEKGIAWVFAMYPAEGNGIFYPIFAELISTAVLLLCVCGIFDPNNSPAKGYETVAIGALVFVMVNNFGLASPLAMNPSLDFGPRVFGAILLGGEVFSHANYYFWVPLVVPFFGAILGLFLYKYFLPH

With `CC[n+]1c(-c2ccccc2)c2cc(N)ccc2c2ccc(N)cc21` [Ethidium], the EC50 with tbaqp2 null (AQP2-KO) (setting [6]) is 1.39 µM; with tbaqp2/tbaqp3 null cells, 1.38 ± 0.14 µM; in assay [1] it was 1.35 ± 0.11 µM; in the assay on T. b. brucei 2T1 (setting [7]), 1.32 µM. The compound further displayed a ΔG0 on TbAQP2/HAPT1 of -5.47 kcal/mol. The “δ(ΔG0)” value on TbAQP2/HAPT1 amounted to 4.71 kcal/mol. This compound showed a Ki at TbAQP2/HAPT1 (Ki) of 97 µM.
Regarding `CC[n+]1c(-c2ccccc2)c2cc(N/N=N/c3cccc(C(=N)N)c3)ccc2c2ccc(N)cc21` [Isometamidium], the EC50 in the assay on tbaqp2 null (AQP2-KO) (setting [6]) was 0.103 µM; in the assay with tbaqp2 null (AQP2-KO) (tbaqp2 null, read-out: EC50), 0.103 ± 0.014 µM; in the assay on tbaqp2/tbaqp3 null cells, 0.095 ± 0.012 µM; in assay [1], 0.098 ± 0.024 µM; with T. b. brucei 2T1 (setting [7]), 0.112 µM; with T. b. brucei 2T1 (read-out: EC50) it was 0.112 ± 0.012 µM. The ΔG0 at TbAQP2/HAPT1 is -7.43 kcal/mol. Further, the “δ(ΔG0)” value on TbAQP2/HAPT1 came out at 2.72 kcal/mol. Further, the Ki on TbAQP2/HAPT1 (HAPT Ki, AVG) came out at 3.54 µM; on TbAQP2/HAPT1 (Ki), 3.5 µM.
Take `O=C(NO)c1ccccc1O` [SHAM]: the EC50 with tbaqp1-2-3 null cells (setting [8]) is 7.9 µM; in the assay with tbaqp1-2-3 null cells (read-out: EC50, single repeats), 7.38 µM and 7.93 µM and 8.39 µM; in assay [2] (+L84M in KO AQP1-3, 3 repeats, read-out: EC50, MEAN), 18.1 µM; in assay [2] (+L84M in KO AQP1-3, read-out: EC50, single repeats), 17.6 µM and 17.7 µM and 19.1 µM; in [2] (+L84W in KO AQP1-3, 3 repeats, read-out: EC50, MEAN) it was 13.2 µM; in assay [2] (+L84W in KO AQP1-3, read-out: EC50, single repeats), 11.3 µM and 13.7 µM and 14.6 µM. Moreover, the EC50 in [2] (+L84W/L118W in KO AQP1-3, 3 repeats, read-out: EC50, MEAN) was 12.2 µM; in [2] (+L84W/L118W in KO AQP1-3, read-out: EC50, single repeats), 11.7 µM and 12.3 µM and 12.6 µM; in assay [2] (+L118M in KO AQP1-3, 3 repeats, read-out: EC50, MEAN), 11.5 µM; in assay [2] (+L118M in KO AQP1-3, read-out: EC50, single repeats) it was 10.9 µM and 12.3 µM and 11.4 µM; in assay [2] (+L118W in KO AQP1-3, 3 repeats, read-out: EC50, MEAN), 10.8 µM; in assay [2] (+L118W in KO AQP1-3, read-out: EC50, single repeats), 10.4 µM and 11.1 µM and 10.9 µM. For the same compound, the EC50 in assay [2] (+L218M in KO AQP1-3, 3 repeats, read-out: EC50, MEAN) is 15.2 µM; in assay [2] (+L218M in KO AQP1-3, read-out: EC50, single repeats) it was 15.8 µM and 12.7 µM and 17.1 µM; in [2] (+L218W in KO AQP1-3, 3 repeats, read-out: EC50, MEAN) it was 15.9 µM; in assay [2] (+L218W in KO AQP1-3, read-out: EC50, single repeats) it was 14.7 µM and 16.3 µM and 16.9 µM; in [3] (setting [8]) it was 18.6 µM; in [3] (read-out: EC50, single repeats) it was 18.5 µM and 18.1 µM and 19.2 µM.
Regarding “carbonyl cyanide m-chlorophenyl hydrazone [CCCP]”, the “Inhibition of [3H]-suramin uptake (endocytosis)” value in assay [4] (20 µM CCCP, pre-incubation 3 min, suramin accumulation over 10 min) was 32.6%. Moreover, the “suramin accumulated, % of no CCCP control” value in assay [4] (+CCCP, 10 minutes) is 67.3935 % of no CCCP control. Besides, the “pmol suramin accumulated in 10 minutes (Average)” value in assay [4] (+CCCP, Average of experiments) amounted to 0.5894 pmol. For the same compound, in assay [4] (+CCCP, single experiments), the “pmol suramin accumulated in 10 minutes (AVG pmol)” value was 0.4589 pmol and 0.5929 pmol and 0.7163 pmol. Further, in the assay on s427WT bloodstream forms, the “Effect of ionophore on pentamidine uptake” value was “strongly inhibited”. Moreover, the “Inhibition of pentamidine transport” value in the assay with s427WT bloodstream forms (1 µM) is ~ 63%; in the assay on s427WT bloodstream forms (5 µM), ~ 90%. Further, the pentamidine uptake in the assay on s427WT bloodstream forms (CCCP 0.25, AVG) was 106.6 percentage of the uninhibited control; in the assay with s427WT bloodstream forms (CCCP 0.25, single repeats) it was 101 percentage of the uninhibited control and 112.1 percentage of the uninhibited control; in the assay with s427WT bloodstream forms (CCCP 1, AVG) it was 36.9 percentage of the uninhibited control; with s427WT bloodstream forms (CCCP 1, single repeats), 34.6 percentage of the uninhibited control and 39.1 percentage of the uninhibited control; in the assay with s427WT bloodstream forms (CCCP 5, AVG) it was 10.3 percentage of the uninhibited control; with s427WT bloodstream forms (CCCP 10, AVG) it was 4.3 percentage of the uninhibited control. Besides, the pentamidine uptake in the assay on s427WT bloodstream forms (CCCP 20, AVG) is listed as 5.0 percentage of the uninhibited control. The 3H-penta with s427WT bloodstream forms (Control = 100) is 4.97*. For the same compound, the “3H-penta, outlier” value in the assay on s427WT bloodstream forms (CCCP 20, repeated in the column outlier, Control = 100) was determined as 4.97. The compound also came in with a PMF in assay [5] of -45.6.
gramicidin: the “Effect of ionophore on pentamidine uptake” value in the assay with s427WT bloodstream forms is given as “strongly inhibited”. In the assay on s427WT bloodstream forms (Control = 100), this compound registered a 3H-penta of 5.87. Further, the pentamidine uptake with s427WT bloodstream forms (Gramicidin 1, AVG) is recorded as 23.3 percentage of the uninhibited control; with s427WT bloodstream forms (Gramicidin 5, AVG), 3.7 percentage of the uninhibited control; with s427WT bloodstream forms (Gramicidin 10, AVG), 5.9 percentage of the uninhibited control. The compound further registered a PMF in assay [5] of -13.1.
